Where a SMILES comes first, the peptide text is derived from it. Bridges are numbered along the chain shown (N, C = ends).
Tests used:
Format in all cases: binding
CRD7 = experiment: phage spot ELISA on CRD7; details: for S/N: phage spot ELISA signal/noise; for S/N / ELISA: S3 Table sheet CRD7; for ELISA: phage spot ELISA signal; for ELISA signal: phage spot ELISA of the clone, positive hit: signal > 0.3 and signal/noise > 2; for ELISA s/n: phage spot ELISA signal/noise ratio
From the text: (§1) To determine the performance of the libraries for ligand discovery we chose a panel of eight protein targets, which have no structural homology and a wide mass range (Fig 7C). We screened these eight targets with solution panning strategy and two additional plate panning for CD8α/β and CD28, thus ten panning campaigns in total. We consider clones showing spot phage ELISA signal > 0.3 and signal/noise ratio > 2 as positive hits. At least one binding hit was discovered for nine out of the ten panning campaigns, surpassing the success rate of the best DCP scaffolds reported previously. We also obtained the NGS data for these screening and the ranking of clones for their enrichment along the rounds of screening was analyzed and considered the top-ranking clones as potential hits. Based on their sequence diversity we selected 16 potential hits spanning five protein targets for peptide synthesis in their linear form. Seven of these are hits with positive phage ELISA signal and nine were selected based on NGS ranking without spot ELISA available. Subsequently, we conducted in vitro folding experiments on these peptides in various buffers. We observed a strong propensity for spontaneous folding regardless of the buffer condition. All HCP hits tested successfully folded into three-disulfide-containing product within two days in a universal buffer system (PBS, pH 7.4, 50% DMSO) without the need for a redox pair, as shown in Fig 8A. The binding of these folded peptides to their respective target proteins was confirmed using SPR (Table 4 and S1 Data) and binding kinetics are exemplified by the high-affinity peptide 5ji4-CRD7-2 (see Fig 8B). Among seven selected ELISA-positive hits, all of them were successfully synthesized and in vitro folded with three disulfide bonds and five were proven to be validated binders by SPR (Table 4). Nine peptides selected from the NGS ranking were synthesized and folded with the expected number of disulfide bonds and five of them bound to their target with affinities in the μM range as determined by SPR (Table 4). In general, binding affinities for these SPR-validated initial hits are weak, with Kd values in the micromolar range and fast on- and off-rates. There are two exceptions with binding affinities in the nanomolar range.
(§2) The 5ji4 libraries were constructed following the Kunkel mutagenesis method and the solution panning protocol was followed as previously described. After four to five rounds of binding selection, while eluted pool was subjected to NGS analysis, individual phage clones were also picked and analyzed with phage spot ELISA. Positive clones were subjected to SANGER sequencing.

HtrA1 = experiment: phage spot ELISA on HtrA1; details: Fig 9A; for ELISA s/n: Spot ELISA signal/noise; for ELISA signal: Spot ELISA
From the text: To determine the performance of the libraries for ligand discovery we chose a panel of eight protein targets, which have no structural homology and a wide mass range (Fig 7C). We screened these eight targets with solution panning strategy and two additional plate panning for CD8α/β and CD28, thus ten panning campaigns in total. We consider clones showing spot phage ELISA signal > 0.3 and signal/noise ratio > 2 as positive hits. […] We also obtained the NGS data for these screening and the ranking of clones for their enrichment along the rounds of screening was analyzed and considered the top-ranking clones as potential hits. Based on their sequence diversity we selected 16 potential hits spanning five protein targets for peptide synthesis in their linear form. Seven of these are hits with positive phage ELISA signal and nine were selected based on NGS ranking without spot ELISA available. Subsequently, we conducted in vitro folding experiments on these peptides in various buffers.
as §2
Among these five hits, A7, which is the SANGER hit, was picked for affinity maturation. Following the same strategy, one soft- and one hard-randomization library was designed targeting the 5JI4 variable regions 1 and 2, respectively. Two libraries were each panned as previously described. Both phage spot ELISA coupled with SANGER sequencing and NGS analysis were applied after affinity maturation.

CD28 = experiment: phage spot ELISA on CD28; details: for S/N: phage spot ELISA signal/noise; for ELISA: phage spot ELISA signal
From the text: as §1, §2

[1] = S3 Table sheet CD28-2 (panning campaign 2)
[2] = S3 Table sheet CD28-1 (panning campaign 1)

Row | Molecule | S/N (CRD7) | ELISA (CRD7) | also measured
1 | PCECDVNGETYTVSSSEECGRLCMQPWAHTCRVHCG [CRD7 clone 9, phage clone, 5JI4 library, CRD7 panning] | 4.522 | 0.312 | –
2 | PCECPATVHWYFIGSSEECERLCRKLGVTNSRVHCD [CRD7 clone 1, phage clone, 5JI4 library, CRD7 panning] | 7.871 | 0.488 | –
3 | CC[C@H](C)[C@@H]1NC(=O)[C@H]([C@@H](C)O)NC(=O)[C@@H]2CSSC[C@H](NC(=O)[C@H](CCC(=O)O)NC(=O)[C@H](C)NC(=O)[C@H](CO)NC(=O)[C@H](CO)NC(=O)[C@H]([C@@H](C)O)NC(=O)[C@H](CC(C)C)NC(=O)[C@H](Cc3ccccc3)NC(=O)[C@H](Cc3ccc(O)cc3)NC(=O)[C@H](Cc3c[nH]c4ccccc34)NC(=O)CNC(=O)[C@@H]3CCCN3C(=O)[C@H](CC(C)C)NC1=O)C(=O)N[C@@H](CCC(=O)O)C(=O)N[C@@H](CCCNC(=N)N)C(=O)N[C@@H](CC(C)C)C(=O)N[C@H]1CSSC[C@H](NC(=O)[C@H]([C@@H](C)O)NC(=O)[C@H](CCCNC(=N)N)NC(=O)[C@H](CC(C)C)NC(=O)CNC(=O)[C@H](CC(C)C)NC(=O)[C@H](CCCNC(=N)N)NC(=O)[C@H](CC(=O)O)NC1=O)C(=O)N[C@@H](CCCNC(=N)N)C(=O)N[C@@H](C(C)C)C(=O)N[C@@H](Cc1c[nH]cn1)C(=O)N[C@H](C(=O)NCC(=O)O)CSSC[C@H](NC(=O)[C@@H]1CCCN1)C(=O)N[C@@H](CCC(=O)O)C(=O)N2 [5ji4_A7.H5B2] (H-PCECTILPGWYFLTSSAECERLCDRLGLRTCRVHCG-OH; disulfide 2-35, 4-19, 23-31) | – | – | ELISA s/n (HtrA1): 7.6; ELISA signal (HtrA1): 3.59
4 | CC[C@H](C)[C@@H]1NC(=O)[C@H](CCCNC(=N)N)NC(=O)[C@@H]2CSSC[C@H](NC(=O)[C@H](CC(C)C)NC(=O)[C@H](CCCNC(=N)N)NC(=O)[C@H](C)NC(=O)[C@@H]3CSSC[C@H](NC(=O)[C@H](CCC(=O)O)NC(=O)[C@@H](NC(=O)[C@@H]4CCCN4)CSSC[C@@H](C(=O)NCC(=O)O)NC(=O)[C@H](Cc4c[nH]cn4)NC1=O)C(=O)N[C@@H](CO)C(=O)N[C@@H]([C@@H](C)CC)C(=O)N[C@@H](CC(C)C)C(=O)N1CCC[C@H]1C(=O)NCC(=O)N[C@@H](Cc1c[nH]c4ccccc14)C(=O)N[C@@H](Cc1c[nH]cn1)C(=O)N[C@@H](Cc1ccccc1)C(=O)N[C@@H](CC(C)C)C(=O)N[C@@H]([C@@H](C)O)C(=O)N[C@@H](CO)C(=O)N[C@@H](CO)C(=O)N[C@@H](C)C(=O)N[C@@H](CCC(=O)O)C(=O)N3)C(=O)N[C@@H](CC(=O)O)C(=O)N[C@@H](CCCNC(=N)N)C(=O)N[C@@H](CC(C)C)C(=O)NCC(=O)N[C@@H](CC(C)C)C(=O)N[C@@H](CCCNC(=N)N)C(=O)N[C@@H]([C@@H](C)O)C(=O)N2 [5ji4_A7.c1] (H-PCECSILPGWHFLTSSAECARLCDRLGLRTCRIHCG-OH; disulfide 2-35, 4-19, 23-31) | – | – | ELISA s/n (HtrA1): 7.5; ELISA signal (HtrA1): 3.55
5 | CC[C@H](C)[C@@H]1NC(=O)[C@@H]2CCCN2C(=O)[C@@H]2CSSC[C@H](NC(=O)[C@H](CCC(=O)O)NC(=O)[C@H](CCC(=O)O)NC(=O)[C@H](CO)NC(=O)[C@H](CO)NC(=O)[C@H](CCCCN)NC(=O)[C@H](C(C)C)NC(=O)[C@@H]3CCCN3C(=O)[C@H](C(C)C)NC(=O)CNC(=O)[C@H](Cc3ccc(O)cc3)NC(=O)[C@@H]3CCCN3C(=O)[C@H](CCCNC(=N)N)NC1=O)C(=O)N[C@@H](CCC(=O)O)C(=O)N[C@@H](CCCNC(=N)N)C(=O)N[C@@H](CC(C)C)C(=O)N[C@H]1CSSC[C@H](NC(=O)[C@H](CC(N)=O)NC(=O)[C@H]([C@@H](C)O)NC(=O)[C@H](C(C)C)NC(=O)CNC(=O)[C@H](CC(C)C)NC(=O)[C@H](CCCCN)NC(=O)[C@H](CCCNC(=N)N)NC1=O)C(=O)N[C@@H](CCCNC(=N)N)C(=O)N[C@@H](C(C)C)C(=O)N[C@@H](Cc1c[nH]cn1)C(=O)N[C@H](C(=O)NCC(=O)O)CSSC[C@H](NC(=O)[C@@H]1CCCN1)C(=O)N[C@@H](CCC(=O)O)C(=O)N2 [5ji4-CRD7-2] (H-PCECPIRPYGVPVKSSEECERLCRKLGVTNCRVHCG-OH; disulfide 2-35, 4-19, 23-31) | – | – | ELISA signal (CRD7): 0.37; ELISA s/n (CRD7): 4.60
6 | PCECDVNGETYTVSSSEECGRLCMNDWATTCRVHCG [CRD7 clone 7, phage clone, 5JI4 library, CRD7 panning] | 14.5714 | 0.918 | –
7 | PCECPIRPYGVPVKSSEECERLCRKLGVTNCRVHCG [CRD7 clone 2, phage clone, 5JI4 library, CRD7 panning] | 4.654 | 0.377 | –
8 | PCECNYIPWIWIPQSSEECERLCRKLGVTNCRVHCG [CRD7 clone 5, phage clone, 5JI4 library, CRD7 panning] | 3.588 | 0.244 | –
9 | PCECDVNGETYTVSSSEECGRLCMTDWVTSCRVHCG [CRD7 clone 8, phage clone, 5JI4 library, CRD7 panning] | 5.905 | 0.372 | –
10 | PCECPSSVYWYFISSSEECERLCRKLGVTNCRVHCG [CRD7 clone 6, phage clone, 5JI4 library, CRD7 panning] | 3.75 | 0.225 | –
11 | PCECRWMFYSTWELSSEECERLCRKLGVTNCRVHCG [CRD7 clone 4, phage clone, 5JI4 library, CRD7 panning] | 4 | 0.28 | –
12 | PWNANVNGETYTVSSSEECERLCSAGLVNSCRVHCG [CD28-2 clone 1, phage clone, 5JI4 library, CD28-2 panning] | – | – | S/N (CD28; [1]): 7.9375; ELISA (CD28; [1]): 0.508
13 | CSCC[C@@H]1NC(=O)[C@@H]2CSSC[C@H](NC(=O)[C@H]([C@@H](C)O)NC(=O)[C@H]([C@@H](C)O)NC(=O)[C@H](C)NC(=O)[C@H](Cc3c[nH]c4ccccc34)NC(=O)[C@H](CC(=O)O)NC(=O)[C@H](CC(N)=O)NC1=O)C(=O)N[C@@H](CCCNC(=N)N)C(=O)N[C@@H](C(C)C)C(=O)N[C@@H](Cc1c[nH]cn1)C(=O)N[C@H](C(=O)NCC(=O)O)CSSC[C@H](NC(=O)[C@@H]1CCCN1)C(=O)N[C@@H](CCC(=O)O)C(=O)N[C@H]1CSSC[C@H](NC(=O)[C@H](CCC(=O)O)NC(=O)[C@H](CCC(=O)O)NC(=O)[C@H](CO)NC(=O)[C@H](CO)NC(=O)[C@H](CO)NC(=O)[C@H](C(C)C)NC(=O)[C@H]([C@@H](C)O)NC(=O)[C@H](Cc3ccc(O)cc3)NC(=O)[C@H]([C@@H](C)O)NC(=O)[C@H](CCC(=O)O)NC(=O)CNC(=O)[C@H](CC(N)=O)NC(=O)[C@H](C(C)C)NC(=O)[C@H](CC(=O)O)NC1=O)C(=O)NCC(=O)N[C@@H](CCCNC(=N)N)C(=O)N[C@@H](CC(C)C)C(=O)N2 [5ji4-CRD7-3] (H-PCECDVNGETYTVSSSEECGRLCMNDWATTCRVHCG-OH; disulfide 2-35, 4-19, 23-31) | – | – | ELISA signal (CRD7): 0.65; ELISA s/n (CRD7): 9.52
14 | PCEYQTWRVVIPDASSEECERLCRKLGVTNCRVHCG [CD28-1 clone 3, phage clone, 5JI4 library, CD28-1 panning] | – | – | S/N (CD28; [2]): 4.407; ELISA (CD28; [2]): 0.4
15 | RANAFWVVLVPDGGSSEECERLCRKLGVTNCRVHCG [CD28-1 clone 4, phage clone, 5JI4 library, CD28-1 panning] | – | – | S/N (CD28; [2]): 2.932; ELISA (CD28; [2]): 0.4
16 | PCECDVNGETYTVSSSEGCERLCSWDQGKWCRVHCG [CD28-1 clone 13, phage clone, 5JI4 library, CD28-1 panning] | – | – | S/N (CD28; [2]): 2.33; ELISA (CD28; [2]): 0.247
17 | PCECIWANYVGYPFSSEECERLCRKLGVTNCRVHCG [CRD7 clone 3, phage clone, 5JI4 library, CRD7 panning] | 2.388 | 0.289 | –
18 | PCEFARQNVFIVHSSSEECERLCRTLGVTNCRVHCG [CD28-1 clone 8, phage clone, 5JI4 library, CD28-1 panning] | – | – | S/N (CD28; [2]): 1.6194; ELISA (CD28; [2]): 0.217
